Test results published in patent US20180078916A1, “LIGNIN-BASED SURFACTANTS” (CARNEGIE MELLON UNIVERSITY, priority 2015, published 2018).

Tested on: corn plants
Assay: clethodim application to corn plants with tank-mix adjuvants, % inhibition versus untreated control plants
Type: in vivo
Settings: clethodim 1 fluid ounce/acre without tank-mix adjuvants, 7 days following treatment
Text: Various surfactants are used as adjuvants for agrochemicals to enhance deposition and penetration through plant surfaces. Two commercial tank-mix adjuvant systems that may be used for comparison are PRIME OIL® and SUPERB® HC (available from Winfield Solutions, LLC of Shoreview, Minn.), which are high surfactant oil concentrates. Representative studied were based on delivery of clethodim at 1 fluid ounce/acre, a commercial herbicide that inhibits growth of certain plants. A measure of effectiveness was the % inhibition (with 0% being no inhibition) compared to untreated control plants. Photographs (a)-(e) of FIG. 11 provide images of corn plants (corn being a common contaminant crop in soybean fields) treated with different formulations 7 days after treatment. Comparatively good results are obtained with clethodim and KLPEG900. Lignin adjuvant activity appeared to be higher at 0.05% v/v that 0.1% v/v.
FIG. 12 illustrates a graph wherein % inhibition is plotted for the different formulations 7 days following treatment.

SMILES: CCSC(C)CC1CC(=O)C(/C(CC)=N/OC/C=C/Cl)=C(O)C1 (stereo not shown) [Clethodim, clethodim]
- % inhibition: 54.4%
